Results on two compounds are retold here after patent publication US9562031B1, “Phenethyldihydrobenzodioxolones and methods of use” (Sequoia Sciences, Inc., priority 2015, dated 2017).

Molecules are shown by their SMILES. Read-outs that look alike come from different tables or passages of the source.

For one series, the system named is ACHN cells. Nature of the series: antiproliferation assay, paclitaxel-resistant ACHN. It counts as cell-based. To be noted: Homo sapiens. Here is the method:
(§1) For the antiproliferation assay, NCI-H460 (large cell lung carcinoma) or M14 (amelanotic melanoma) cells were grown in RPMI-1640 with 10% FBS supplemented with L-glutamine and HEPES. Cells were seeded into 96-well plates at 5×10^2 to 5×10^4 cells/well and allowed to adhere overnight; the medium was then removed. A stock solution of test compound in DMSO was diluted in medium to generate a series of working solutions. Aliquots (100 μl) of the working solutions were then added to the appropriate test wells to expose cells to the final concentrations of compound in a total volume of 100 μl. Seven different concentrations were tested, with 2-5 wells per concentration. Camptothecin was used as a positive control; wells containing vehicle without compound were used as negative controls. Plates were kept for 72 h in a 37° C., 5% CO2 incubator. After incubation, viable cells were detected with the CELLTITER 96 AQueous Non-Radioactive Cell Proliferation Assay (Promega), and IC50 values were determined using GraphPad Prism 5 software.
(§2) Compound 4 was tested for antiproliferation activity against several paclitaxel-resistant human cancer cell lines.

The next series has as its system DLD-1 cells. Nature of the series: antiproliferation assay, paclitaxel-resistant DLD-1. To be noted: Homo sapiens. It counts as cell-based. How it is done: as §1, §2
A short description of series [1]: compound concentrations in mouse plasma after IP injection (LC/MS). It counts as in vivo. The following applies: mice, IP 40 mg/kg, 3-5 h after injection; vehicle 42.97% propylene glycol, 0.23% TWEEN-20, 31.5% PEG400, 15.3% ethanol, 10% water. Here is the method: The bioavailabilities of certain compounds were examined in mice. Administration of the compounds was performed by intraperitoneal (IP) injection using a vehicle as known to those skilled in the art. To measure compound concentrations in plasma, blood is collected by cardiac puncture at a specified time after […]. It is then centrifuged in a plasma separator tube with NaEDTA/NaF as the anticoagulant, and the resulting plasma is stored at −80° C. For analysis, an internal standard is added to a 200 μL aliquot of plasma, and the aliquot is extracted with ethyl acetate. The ethyl acetate extract is analyzed by LC/MS and quantitated using a standard curve prepared by adding known amounts of test compound and internal standard to 200 μL aliquots of blank mouse plasma.
Many vehicles can be used to examine bioavailability. […]
Plasma concentrations were measured for several additional compounds. Table 12 lists plasma concentrations (as a multiple of the compound's IC50 against NCI-H460 cells) measured for these compounds at different time points after injection, along with the vehicle used.

The subject of series [2] is M14 (amelanotic melanoma) cells. Briefly: antiproliferation assay (72 h, CELLTITER 96), M14. It counts as cell-based, human. To be noted: Homo sapiens. In short, it runs like this: (§3)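 Human M14 melanoma and NCI-H460 lung carcinoma cells in RPMI-1640/10% FBS, seeded at 5×10^2–5×10^4 cells/well and adhered overnight, then exposed to seven compound concentrations for 72 h at 37 °C. Viable cells read by CellTiter 96 AQueous (MTS); IC50 = concentration giving 50% of maximal growth inhibition.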

Series [3] concerns NCI-H460 (large cell lung carcinoma) cells. Nature of the series: antiproliferation assay (72 h, CELLTITER 96), NCI-H460. It counts as cell-based, human. The following applies: Homo sapiens. The method in brief: as §3
The subject of another series is TK-10 cells. Nature of the series: NCI-60 panel antiproliferation, TK-10. To be noted: Homo sapiens, NCI 60-cell panel. It counts as cell-based, human. Here is the method: (§4) Bifidenone and Compound 37 were tested for antiproliferation activity against the NCI-60 panel of cancer cell lines. COMPARE analysis was then conducted to compare the activity “fingerprint” of bifidenone to those of known classes of compounds (Zhou, B.-N., Hoch, J. M., Johnson, R. K., Mattern, M. R., Eng, W.-K., Ma, J., Hecht, S. M., Newman, D. J., Kingston, D. G. I., 2000. Use of COMPARE Analysis to Discover New Natural Product Drugs: Isolation of Camptothecin and 9-Methoxycamptothecin from a New Source. Journal of Natural Products 63, 1273-1276.).

In a further series the test system is HCT-116 cells. Briefly: NCI-60 panel antiproliferation, HCT-116. It counts as cell-based, human. To be noted: Homo sapiens, NCI 60-cell panel. Here is the method:
as §4

Another series relates to IGR-OV1 cells. Briefly: NCI-60 panel antiproliferation, IGR-OV1. It counts as cell-based, human. To be noted: Homo sapiens, IGROV-1, NCI 60-cell panel. How it is done:
as §4

The test system of another series is HL-60 cells. Nature of the series: NCI-60 panel antiproliferation, HL-60. The following applies: Homo sapiens, NCI 60-cell panel. It counts as cell-based, human. Here is the method: as §4
Another series concerns HT29 cells. Briefly: NCI-60 panel antiproliferation, HT29. It counts as cell-based, human. The following applies: Homo sapiens, HT-29, NCI 60-cell panel. Here is the method: as §4
A further series deals with COLO205 cells. Briefly: NCI-60 panel antiproliferation, COLO205. It counts as cell-based, human. To be noted: Homo sapiens, COLO 205, NCI 60-cell panel. How it is done: as §4
The next series deals with SN12C cells. Nature of the series: NCI-60 panel antiproliferation, SN12C. It counts as cell-based, human. The following applies: Homo sapiens, NCI 60-cell panel. Here is the method: as §4
For a further series, the system named is LOX IMVI cells. Briefly: NCI-60 panel antiproliferation, LOX IMVI. To be noted: Homo sapiens, NCI 60-cell panel. It counts as cell-based, human. Here is the method: as §4
A further series concerns KM12 cells. Briefly: NCI-60 panel antiproliferation, KM12. It counts as cell-based, human. To be noted: Homo sapiens, NCI 60-cell panel. How it is done: as §4
The next series deals with NCI-H226 cells. Nature of the series: NCI-60 panel antiproliferation, NCI-H226. To be noted: Homo sapiens, NCI 60-cell panel. It counts as cell-based, human. Here is the method:
as §4

The next series has as its system BT-549 cells. Nature of the series: NCI-60 panel antiproliferation, BT-549. It counts as cell-based, human. To be noted: Homo sapiens, NCI 60-cell panel. Here is the method: as §4
For a further series, the system named is SNB-19 cells. Briefly: NCI-60 panel antiproliferation, SNB-19. To be noted: Homo sapiens, NCI 60-cell panel. It counts as cell-based, human. How it is done: as §4
A further series deals with MOLT-4 cells. Nature of the series: NCI-60 panel antiproliferation, MOLT-4. It counts as cell-based, human. The following applies: Homo sapiens, NCI 60-cell panel. How it is done: as §4

The IC50 is the concentration that gives 50% inhibition. `C=CC[C@H]1C[C@]2([C@H](C)Cc3cc(O)c(OC)cc3F)OCOC2=CC1=O` (relative stereo) [Compound 4, 6-allyl-7a-(1-(2-fluoro-5-hydroxy-4-methoxyphenyl)propan-2-yl)-7,7a-dihydrobenzo[d][1,3]dioxol-5(6H)-one]: the IC50 in the series with ACHN cells is 15 nM; in the series on DLD-1 cells, below 5 nM; in series [2] (Table 3), 11 nM; in series [3] (NCI-H460, Table 3, read-out: NCI-H460 IC50), 15 nM; in series [3] (NCI-H460, as quoted in the pharmacokinetics text, read-out: IC50 against NCI-H460 human lung cancer cells), 15 nM. In addition, in [1], the “plasma concentration relative to IC50 against NCI-H460” value is “below its IC50”.
Turning to `C=CC[C@H]1C[C@]2([C@@H](C)Cc3ccc(OC)c(F)c3)OCOC2=CC1=O` [Compound 37, (6S,7aR)-6-allyl-7a-((S)-1-(3-fluoro-4-methoxyphenyl)propan-2-yl)-7,7a-dihydrobenzo[d][1,3]dioxol-5(6H)-one], the concentration for half-maximal inhibition (IC50) with TK-10 cells was determined as 107 nM; with HCT-116 cells, 115 nM; with IGR-OV1 cells, 63 nM; with HL-60 cells, 36 nM; in the series on HT29 cells, 88 nM; in the series on COLO205 cells, 67 nM. Besides, the half-inhibitory concentration (IC50) with SN12C cells turned out to be 350 nM; in the series on LOX IMVI cells, 27 nM; in the series with KM12 cells, 55 nM; in [2] (Table 4) it was 8 nM; in the series on NCI-H226 cells it was 141 nM; in the series on BT-549 cells it was 63 nM. Moreover, the IC50 is 73 nM in the series on SNB-19 cells; 85 nM in [3] (NCI-H460, Table 4, read-out: NCI-H460 IC50); 97 nM in the series with MOLT-4 cells.
